Test results as given in patent publication US20250074911A1, “MACROCYCLIC BTK INHIBITORS” (Crossfire Oncology Holding B.V., priority 2021, published 2025).
Like-named read-outs stand apart in the source and are kept apart here.

Assays:
[1] = target: full-length BTK C481S enzyme (Homo sapiens (Human), UniProt Q06187, C481S); assay: Biochemical kinase assay BTK C481S (IMAP)
Method: Biochemical kinase assay BTK […] To determine the inhibitory activity of compounds on BTK C481S enzyme activity, the IMAP® assay (Molecular Devices) was used. […] After pre-incubation of 1 hour in the dark at room temperature, fluorescein-labeled MBP-derived substrate peptide (Molecular Devices, cat. no. RP 7123) was added, followed by ATP to start the reaction. Final enzyme concentration was 1.2 nM final substrate concentration 50 nM, and final ATP concentration was 7 μM. The reaction was allowed to proceed for 2 hours at room temperature in the dark. The reaction was stopped by quenching with IMAP progressive binding solution according to the protocol of the manufacturer (Molecular Devices). Fluorescein polarization was measured on an Envision multimode reader (Perkin Elmer, Waltham, MA, U.S.A.). IC50 were calculated using XLfitTM5 software (ID Business Solutions, Ltd., Surrey, U.K.). Results of the BTK […] binding affinity are shown in Table 1 below. • IC50 BTK […]: […]

[2] = tested on: wt-TMD8 diffuse large B-cell lymphoma cells; assay: Cell proliferation assay wt-TMD8 (ATPlite, 120 hours); assay type: cell-based; settings: B-cell, read-out: IC50 wt-TMD8
Method: Cell proliferation assay wt-TMD8 diffuse large B-cell lymphoma cells were purchased from Tokyo Medical and Dental University and cultured in RPMI-1640 cell culture medium (cat. no. 61870036, Life Technologies), supplemented with 10% (v/v) heat-inactivated fetal bovine calf serum and 1% penicillin/[…]. 1600 cells per well (in 45 μl) were seeded in a white 384-well culture plate (cat. no. 781080, Greiner Bio-One) and allowed to rest for at least 5 hours at 37° C., 95% humidity, and 5% CO2. 5 μl compound solution was added to the cells and incubation was continued for 120 hours (5 days), followed by addition of 24 μl ATPlite 1Step™ (PerkinElmer, Groningen, The Netherlands) solution was added to each well. Luminescence was recorded on an Envision multimode reader. The cell signal at the start of incubation was recorded separately in order to distinguish between cell population growth and cell death. In addition, maximum growth was determined by incubation of a duplicate without compound in the presence of 0.3% DMSO. Percentage growth was used as the main y-axis signal.

[3] = tested on: wt-REC-1 mantle cell lymphoma cells; assay: Cell proliferation assay wt-REC-1 (ATPlite, 72 hours); assay type: cell-based
Method: Results of the BTK […] binding affinity are shown in Table 1 below. • IC50 BTK […]: […] wt-REC-1 mantle cell lymphoma cells were purchased from American Type Culture Collection via Synthego Corporation (cat. no. CRL-3004, ATCC). […] Luminescence was recorded on an Envision multimode reader. The cell signal at the start of incubation was recorded separately in order to distinguish between cell population growth and cell death. In addition, maximum growth was determined by incubation of a duplicate without compound in the presence of 0.3% DMSO. Percentage growth was used as the main y-axis signal. IC50s were fitted by non-linear regression using IDBS XLfitTM5 using a 4-parameter logistic curve, yielding a maximum signal, minimum signal, hill-parameter and IC50. Results of the wt-REC-1 proliferation are shown in Table 1 below. • IC50 wt-REC-1: […]

REC-1 T474I cell lines = assay: Cell proliferation assay REC-1 BTK T474I knock-in cells (ATPlite, 72 hours); assay type: cell-based; settings: Homo sapiens, read-out: IC50 REC-1 T474I
Method: Cell proliferation assay Generation of BTK […] knock-in cell lines wt-REC-1 cell lines expressing mutant BTK were created at Synthego Corporation. Cell lines expressing BTK […] was generated via CRISPR/Cas9. Monoclonal REC-1 […] cell lines were obtained by single cell cloning. The mutation status of all cell lines was confirmed via sequencing. […] Luminescence was recorded on an Envision multimode reader. The cell signal at the start of incubation was recorded separately in order to distinguish between cell population growth and cell death. In addition, maximum growth was determined by incubation of a duplicate without compound in the presence of 0.3% DMSO. Percentage growth was used as the main y-axis signal.

[4] = target: full-length wt-BTK enzyme (Homo sapiens (Human), UniProt Q06187); assay: Biochemical kinase assay wt-BTK (IMAP)
Method: Biochemical kinase assay wt-BTK To determine the inhibitory activity of compounds on wt-BTK enzyme activity, the IMAP® assay (Molecular Devices) was used. […] After pre-incubation of 1 hour in the dark at room temperature, fluorescein-labeled MBP-derived substrate peptide (Molecular Devices, cat. no. RP 7123) was added, followed by ATP to start the reaction. Final enzyme concentration was 1.2 nM, final substrate concentration 50 nM, and final ATP concentration was 4 μM. The reaction was allowed to proceed for 2 hours at room temperature in the dark. The reaction was stopped by quenching with IMAP progressive binding solution according to the protocol of the manufacturer (Molecular Devices). Fluorescein polarization was measured on an Envision multimode reader (Perkin Elmer, Waltham, MA, U.S.A.). […] Results of the wt-BTK binding affinity are shown in Table 1 below. • IC50 wt-BTK: […]

[5] = wt-TMD8 cells, 120 hours, ATPlite

Sequence of full-length wt-BTK enzyme (Q06187 whole entry): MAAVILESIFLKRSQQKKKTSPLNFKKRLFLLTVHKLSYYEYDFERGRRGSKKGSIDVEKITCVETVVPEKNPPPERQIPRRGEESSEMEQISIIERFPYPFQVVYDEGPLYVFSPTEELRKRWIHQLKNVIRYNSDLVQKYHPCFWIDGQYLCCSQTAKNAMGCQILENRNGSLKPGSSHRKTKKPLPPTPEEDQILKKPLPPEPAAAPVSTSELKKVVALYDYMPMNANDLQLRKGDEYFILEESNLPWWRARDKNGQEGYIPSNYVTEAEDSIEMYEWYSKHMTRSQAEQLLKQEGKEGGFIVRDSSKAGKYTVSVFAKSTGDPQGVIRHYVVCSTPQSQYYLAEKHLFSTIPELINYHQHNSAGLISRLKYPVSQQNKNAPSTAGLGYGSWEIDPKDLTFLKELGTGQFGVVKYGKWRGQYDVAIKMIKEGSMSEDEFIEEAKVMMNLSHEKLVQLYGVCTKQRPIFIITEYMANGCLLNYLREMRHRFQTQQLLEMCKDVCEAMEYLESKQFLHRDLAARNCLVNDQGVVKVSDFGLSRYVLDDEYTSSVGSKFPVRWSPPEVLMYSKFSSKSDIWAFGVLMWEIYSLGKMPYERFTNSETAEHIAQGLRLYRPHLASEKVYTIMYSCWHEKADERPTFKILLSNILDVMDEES
Sequence of full-length BTK C481S enzyme (Q06187 whole entry C481S): as the sequence (Q06187 whole entry) above, with C481S counted along it

Row | IC50 [1] [nM] | IC50 [2, 5] [nM] | IC50 ([3]; 72 h; read-out: IC50 wt-REC-1) [nM] | IC50 [4] [nM] | SMILES | IC50 (REC-1 T474I cell lines; Rec1, 72 hours) [nM] | IC50 ([2]; 120 h) [nM] | IC50 ([3]; 72 h, read-out: IC50 wt-REC-1) [nM] | IC50 (REC-1 T474I cell lines; Rec1, 72 h) [nM]
1 | < 5 | < 100 | 1000 to 10000 | < 5 | CC(=O)N1CC/C=C/c2cnc(N)c3c(-c4ccc(C(=O)Nc5cc(C(F)(F)F)ccn5)cc4)nn(c23)[C@@H]2CCC[C@H](C2)NC(=O)C[C@H]1C [Example 190] | 500 to 10000 |  |  | 
2 | < 5 | < 100 | 100 to 1000 | < 5 | C[C@H]1/C=C/c2cnc(N)c3c(-c4ccc(C(=O)Nc5cc(C(F)(F)F)ccn5)cc4)nn(c23)[C@@H]2CCC[C@H](C2)NC(=O)CCCN1C [Example 43] | 500 to 10000 |  |  | 
3 | < 5 | < 100 | 100 to 1000 | < 5 | C[C@@H]1CCn2nc(-c3ccc(C(=O)Nc4cc(C(F)(F)F)ccn4)cc3)c3c(N)ncc(c32)/C=C/CCO[C@@H](C)CC(=O)N1 [Example 158] | 500 to 10000 |  |  | 
4 | < 5 | < 100 | < 100 | < 5 | Nc1ncc2c3c1c(-c1ccc(C(=O)Nc4ccccn4)cc1)nn3[C@@H]1CCC[C@H](C1)NC(=O)CCCCCC/C=C/2 [Example 29] | 100 to 500 |  |  | 
5 | < 5 | < 100 | < 100 | < 5 | Nc1ncc2n3c(nc(-c4ccc(C(=O)Nc5cc(C(F)(F)F)ccn5)cc4)c13)[C@@H]1CCC[C@H](C1)NC(=O)CCOC/C=C/2 [Example 178] | 100 to 500 |  |  | 
6 | < 5 | < 100 | < 100 | < 5 | CN1CC/C=C/c2cnc(N)c3c(-c4ccc(C(=O)Nc5cc(C(F)(F)F)ccn5)cc4)nn(c23)[C@@H]2CCC[C@H](C2)NC(=O)CC1 [Example 38] | < 100 |  |  | 
7 | < 5 | < 100 | 100 to 1000 | < 5 | Nc1ncc2c3c1c(-c1ccc(C(=O)Nc4cc(C(F)(F)F)ccn4)cc1)nn3[C@@H]1CCC[C@H](C1)NC(=O)CCCCC/C=C\C2 [Example 101b] | 500 to 10000 |  |  | 
8 | < 5 | < 100 | 100 to 1000 | < 5 | C[C@@H]1CCn2nc(-c3ccc(C(=O)Nc4cc(C(F)(F)F)ccn4)cc3)c3c(N)ncc(c32)/C=C/CN2CCN[C@H](C2)C(=O)N1 [Example 142] | 500 to 10000 |  |  | 
9 | < 5 | < 100 | < 100 | < 5 | C[C@@H]1CCn2nc(-c3ccc(C(=O)Nc4cc(C(F)(F)F)ccn4)cc3)c3c(N)ncc(c32)/C=C/CCCCCC(=O)N1 [Example 60] | 500 to 10000 |  |  | 
10 | < 5 | < 100 | < 100 | < 5 | Nc1ncc2c3c1c(-c1ccc(C(=O)Nc4cc(C(F)(F)F)ccn4)cc1)nn3[C@@H]1CCC[C@H](C1)C(=O)NCCCCCCCC2 [Example 119] | 500 to 10000 |  |  | 
11 | < 5 | < 100 | 1000 to 10000 | < 5 | CN1CCCCc2cnc(N)c3c(-c4ccc(C(=O)Nc5cc(C(F)(F)F)ccn5)cc4)nn(c23)[C@@H]2CCC[C@H](C2)C(=O)NCC1 [Example 140] | 500 to 10000 |  |  | 
12 | 5 to 50 | 100 to 1000 | 1000 to 10000 | 5 to 50 | Nc1ncc2c3c1c(-c1ccc(C(=O)Nc4cc(C(F)(F)F)ccn4)cc1)nn3[C@@H]1CCC[C@H](C1)NC(=O)CNC/C=C\C2 [Example 105] | 500 to 10000 |  |  | 
13 | < 5 | < 100 | < 100 | < 5 | CN1CC/C=C/c2cnc(N)c3c(-c4ccc(C(=O)Nc5cc(C(F)(F)F)ccn5)cc4)nn(c23)[C@@H]2CCC[C@H](C2)C(=O)NCC1 [Example 5] | 100 to 500 |  |  | 
14 | < 5 | < 100 | < 100 | < 5 | C[C@H]1CC(=O)N[C@@H]2CCC[C@H](C2)n2nc(-c3ccc(C(=O)Nc4cc(C#N)ccn4)cc3)c3c(N)ncc(c32)/C=C/CCO1 [Example 161] | < 100 |  |  | 
15 | < 5 | < 100 | 100 to 1000 | < 5 | C[C@@H]1CNC(=O)[C@@H]2CCC[C@H](C2)n2nc(-c3ccc(C(=O)Nc4cc(C(F)(F)F)ccn4)cc3)c3c(N)ncc(c32)/C=C/CO1 [Example 149] | < 100 |  |  | 
16 | < 5 | < 100 | 100 to 1000 | < 5 | Nc1ncc2c3c1c(-c1ccc(C(=O)Nc4cc(C(F)(F)F)ccn4)cc1)nn3[C@@H]1CCC[C@H](C1)NC(=O)CCC[C@@H](O)/C=C/2 [Example 14] | 500 to 10000 |  |  | 
17 | < 5 | < 100 | < 100 | < 5 | C[C@@H]1CCn2nc(-c3ccc(C(=O)Nc4cc(C(F)(F)F)ccn4)cc3)c3c(N)ncc(c32)/C=C/CCCOCC(=O)N1 [Example 70] | 500 to 10000 |  |  | 
18 | < 5 | < 100 | 100 to 1000 | < 5 | Nc1ncc2c3c1c(-c1ccc(C(=O)Nc4cc(C(F)(F)F)ccn4)cc1)nn3[C@@H]1CCC[C@H](C1)NC(=O)CCC[C@H](O)/C=C/2 [Example 13] | 500 to 10000 |  |  | 
19 | < 5 | < 100 | < 100 | < 5 | CC(=O)N1CC/C=C/c2cnc(N)c3c(-c4ccc(C(=O)Nc5cc(C(F)(F)F)ccn5)cc4)nn(c23)[C@@H]2CCC[C@H](C2)NC(=O)C1 [Example 35] | 100 to 500 |  |  | 
20 | 5 to 50 | < 100 | 100 to 1000 | 5 to 50 | Nc1ncc2c3c1c(-c1ccc(C(=O)Nc4ccccn4)cc1)nn3[C@@H]1CCC[C@H](C1)NC(=O)CCC/C=C\C2 [Example 99b] | 500 to 10000 |  |  | 
21 | < 5 | < 100 | 100 to 1000 | < 5 | CC1CCn2nc(-c3ccc(C(=O)Nc4cc(C(F)(F)F)ccn4)cc3)c3c(N)ncc(c32)/C=C/C(O)CCCCC(=O)N1 (stereo not shown) [Example 75] | 500 to 10000 |  |  | 

Row | SMILES | IC50 [1] [nM] | IC50 [2, 5] [nM] | IC50 ([3]; 72 h; read-out: IC50 wt-REC-1) [nM] | IC50 [4] [nM] | IC50 (REC-1 T474I cell lines; Rec1, 72 hours) [nM] | IC50 ([2]; 120 h) [nM] | IC50 ([3]; 72 h, read-out: IC50 wt-REC-1) [nM] | IC50 (REC-1 T474I cell lines; Rec1, 72 h) [nM]
22 | [2H]C1([2H])/C=C/c2cnc(N)c3c(-c4ccc(C(=O)Nc5cc(C(F)(F)F)ccn5)cc4)nn(c23)[C@@H]2CCC[C@H](C2)NC(=O)CCCC1 [Example 137] | < 5 | < 100 | < 100 | < 5 | < 100 |  |  | 
23 | CN1C/C=C/c2cnc(N)c3c(-c4ccc(C(=O)Nc5cc(C(F)(F)F)ccn5)cc4)nc(n23)[C@@H]2CCCN(C2)C(=O)CCCC1 [Example 129] | < 5 |  |  | < 5 |  | < 100 | 100 to 1000 | 500 to 10000
